Publication PMC9225712, “Rational design of biodegradable sulphonamide candidates treating septicaemia by synergistic dual inhibition of COX-2/PGE2 axis and DHPS enzyme” (Journal of Enzyme Inhibition and Medicinal Chemistry, 2022)
Marks after values point to notes of the source that are not given here.

Key:
[1] = system: carrageenan-induced paw edoema; assay: Carrageenan-induced paw edoema in mice; conditions: for ED50: Mus musculus, read-out: ED50 (95% confidence level); for ED50 / percentage anti-inflammatory activity (AI%) 8h: 8 h; for Thickness of edoema 0h / percentage anti-inflammatory activity (AI%) 2h / Thickness of edoema 2h / percentage anti-inflammatory activity (AI%) 4h / Thickness of edoema 4h / percentage anti-inflammatory activity (AI%) 6h / Thickness of edoema 6h / percentage anti-inflammatory activity (AI%) 8h / Thickness of edoema 8h: mice, po 10 µmol/kg b.wt.; for Thickness of edoema 0h: 0 h (before carrageenan); for Thickness of edoema 0h / Thickness of edoema 2h / Thickness of edoema 4h / Thickness of edoema 6h / Thickness of edoema 8h: Mean ± SEM, n = 5; for Thickness of edoema 2h: 2 h after carrageenan; for Thickness of edoema 4h: 4 h after carrageenan; for Thickness of edoema 6h: 6 h after carrageenan; for Thickness of edoema 8h: 8 h after carrageenan
[2] = system: PGE2; assay: Estimation of rat plasma PGE2; conditions: po 10 µmol/kg b.wt., 8 h after carrageenan; for % inhibition of PGE2-production: rat serum; for PGE2 serum conc.: rat, Mean ± SEM, n = 5
[3] = system: Streptococcus mutans (RCMB 0100172); assay: Inhibition zone, agar cup diffusion; conditions: RCMB0100172, 24 h, read-out: inhibition zones (IZ) S. mutans
[4] = system: Bacillus subtilis (RCMB 0100162); assay: Inhibition zone, agar cup diffusion; conditions: RCMB0100162, 24 h, read-out: inhibition zones (IZ) B. subtillis
[5] = system: Escherichia coli (RCMB 010052); assay: Inhibition zone, agar cup diffusion; conditions: RCMB010052, 24 h, read-out: inhibition zones (IZ) E.coli
[6] = system: E. coli C11; conditions: for ED50: Escherichia coli, C11, in Mus musculus, read-out: ED50 against E.coli infection; for ED50, protective effect against bacteremic infection, Escherichia coli: mice, challenge dose 7.1x10^3 CFU/mouse ip, intragastric once a day for 7 days, survival
[7] = system: Proteus vulgaris (RCMB 010085); assay: Inhibition zone, agar cup diffusion; conditions: RCMB010085, 24 h, read-out: inhibition zones (IZ) P. vulgaris
[8] = system: Pseudomonas aeruginosa (RCMB 0100243); assay: Inhibition zone, agar cup diffusion; conditions: RCMB0100243, 24 h, read-out: inhibition zones (IZ) P.aeruginosa
[9] = system: Salmonella typhi (RCMB 0100104); assay: Inhibition zone, agar cup diffusion; assay type: cell-based; conditions: Salmonella enterica, 24 h, read-out: inhibition zones (IZ) S. typhi
[10] = system: Gram-positive and Gram-negative bacteria; assay: In vitro antibacterial screening, whole panel; assay type: cell-based; conditions: whole bacterial panel, result in words
[11] = system: Staphylococcus aureus (RCMB 0100183); assay: Inhibition zone, agar cup diffusion; conditions: RCMB0100183, 24 h, read-out: inhibition zones (IZ) S. aureus
[12] = system: Shigella dysenteriae (RCMB 0100542); assay: Inhibition zone, agar cup diffusion; assay type: cell-based; conditions: RCMB0100542, 24 h, read-out: inhibition zones (IZ) S. dysenteriae
[13] = target: T1, ovine COX-1 (Ovis aries, UniProt P05979); assay: In vitro COX-1 enzymatic assay (Cayman kit 560131); assay type: biochemical; conditions: Mean ± SEM of triplicate determinations
T1 construct: purchased Cayman Chemicals Inc. 560131
T1 sequence (P05979 25-600): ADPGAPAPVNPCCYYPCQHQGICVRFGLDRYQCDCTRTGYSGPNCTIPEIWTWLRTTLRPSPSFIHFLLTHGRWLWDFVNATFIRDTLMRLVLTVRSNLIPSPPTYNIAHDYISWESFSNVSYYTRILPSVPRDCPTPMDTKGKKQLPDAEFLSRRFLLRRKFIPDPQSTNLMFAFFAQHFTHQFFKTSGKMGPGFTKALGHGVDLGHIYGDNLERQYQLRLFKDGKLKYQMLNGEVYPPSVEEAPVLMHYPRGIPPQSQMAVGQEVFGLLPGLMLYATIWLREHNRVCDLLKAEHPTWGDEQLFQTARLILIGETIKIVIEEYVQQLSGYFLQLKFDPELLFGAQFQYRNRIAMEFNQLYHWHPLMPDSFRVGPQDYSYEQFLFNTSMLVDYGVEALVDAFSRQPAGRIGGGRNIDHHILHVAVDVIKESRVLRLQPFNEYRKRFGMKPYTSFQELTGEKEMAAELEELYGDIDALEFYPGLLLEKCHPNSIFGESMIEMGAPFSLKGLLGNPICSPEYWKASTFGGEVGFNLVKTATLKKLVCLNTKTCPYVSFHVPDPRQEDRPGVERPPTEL

[14] = system: Staphylococcus epidermidis (RCMB 0100183); assay: Inhibition zone, agar cup diffusion; conditions: RCMB0100183, 24 h, read-out: inhibition zones (IZ) S. epidermidis
[15] = system: gastric layers; assay: Gastric ulcerogenic activity; conditions: fasted male Wistar rats, oral 30 µmol/kg twice at 4 h interval
[16] = target: T2, human recombinant COX-2 (Homo sapiens, UniProt P35354); assay: In vitro COX-2 enzymatic assay (Cayman kit 560131); conditions: for SI COX-1/COX-2: COX-2 selectivity index: COX-1 IC50/COX-2 IC50
T2 sequence (P35354 18-604): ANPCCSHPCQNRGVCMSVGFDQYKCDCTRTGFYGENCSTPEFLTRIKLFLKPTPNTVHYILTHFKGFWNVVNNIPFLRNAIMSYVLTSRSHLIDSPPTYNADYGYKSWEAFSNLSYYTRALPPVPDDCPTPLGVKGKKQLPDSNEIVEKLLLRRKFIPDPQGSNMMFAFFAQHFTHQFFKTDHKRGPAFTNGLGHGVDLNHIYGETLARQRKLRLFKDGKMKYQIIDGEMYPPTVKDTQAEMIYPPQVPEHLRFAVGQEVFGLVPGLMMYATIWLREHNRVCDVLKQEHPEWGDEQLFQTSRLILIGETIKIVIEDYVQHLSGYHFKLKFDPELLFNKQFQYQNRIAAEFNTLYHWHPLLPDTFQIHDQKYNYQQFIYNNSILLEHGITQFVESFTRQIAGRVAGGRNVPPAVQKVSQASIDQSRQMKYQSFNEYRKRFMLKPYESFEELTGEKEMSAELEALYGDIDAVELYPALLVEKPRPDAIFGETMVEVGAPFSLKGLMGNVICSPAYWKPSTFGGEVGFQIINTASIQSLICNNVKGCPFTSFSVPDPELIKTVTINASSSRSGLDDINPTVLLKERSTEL

[17] = system: S. aureus Smith; conditions: for ED50: Staphylococcus aureus, in Mus musculus, read-out: ED50 against S. aureus infection; for ED50, protective effect against bacteremic infection, Staphylococcus aureus: mice, challenge dose 9.5x10^6 CFU/mouse ip, intragastric once a day for 7 days, survival

SMILES | ED50 [1] [µmol/kg] | Thickness of edoema 0h [1] [mm] | percentage anti-inflammatory activity (AI%) 2h [1] | Thickness of edoema 2h [1] | percentage anti-inflammatory activity (AI%) 4h [1] | Thickness of edoema 4h [1] | percentage anti-inflammatory activity (AI%) 6h [1] | zone of inhibition at 1000 µg/mL [3] [mm] | zone of inhibition at 1000 µg/mL [4] [mm] | zone of inhibition at 1000 µg/mL [5] [mm] | zone of inhibition at 1000 µg/mL [7] [mm] | zone of inhibition at 1000 µg/mL [8] [mm] | zone of inhibition at 1000 µg/mL [9] [mm] | in vitro antibacterial activity [10] | zone of inhibition at 1000 µg/mL [11] [mm] | zone of inhibition at 1000 µg/mL [12] [mm] | IC50 [13] [µM] | zone of inhibition at 1000 µg/mL [14] [mm] | IC50 [16] [nM] | SI COX-1/COX-2 [16] | also measured
Cc1ccc(-c2cc(C(F)(F)F)nn2-c2ccc(S(N)(=O)=O)cc2)cc1 [Celecoxib, reference compound] | 13.1 | 0.62 ± 0.01 | (6.32%)^d | 0.89 ± 0.01^c mm | (45.14%) | 0.79 ± 0.01^c mm | (64.39%) |  |  |  |  |  |  |  |  |  |  |  |  |  | Thickness of edoema 6h [1]: 0.73 ± 0.03^c mm; percentage anti-inflammatory activity (AI%) 8h [1]: (70.87%); percentage anti-inflammatory activity (AI%) 8h ([1]; listed as celecoxib): 70.87%; Thickness of edoema 8h [1]: 0.67 ± 0.02^c mm; % inhibition of PGE2-production [2]: 71.18%; PGE2 serum conc. [2]: 380.636 ± 5.53 pg/mL
CCCCNC(=O)c1cc(/N=N/c2ccc(S(=O)(=O)Nc3nccs3)cc2)ccc1O [Compound 5b, N-Butyl-2-hydroxy-5-((4-(N-(thiazol-2-yl)sulfamoyl)phenyl)diazenyl) benzamide] | 18.7 | 0.68 ± 0.01 | (0%) | 0.95 ± 0.04 mm | (20.83%) | 1.19 ± 0.01 mm | (45.85%) | 27 | 20 | 14 | 19 | 16 | 14 | weak in vitro antibacterial activity | 29 | 22 | 12.2 ± 0.06 | 34 | 70 ± 0.5 | 187.7 | ED50 [6]: 416 µmol/kg; ED50, protective effect against bacteremic infection, Escherichia coli [6]: 415.7 µmol/kg/day; Thickness of edoema 6h [1]: 1.11 ± 0.01 mm; Thickness of edoema 8h [1]: 1.01 ± 0.02 mm; Gastric ulcerogenic effect, histopathological examination of gastric layers [15]: gastrointestinal safety profile; ED50 [17]: 413 µmol/kg; ED50, protective effect against bacteremic infection, Staphylococcus aureus [17]: 413.1 µmol/kg/day; % inhibition of PGE2-production [2]: 65.70%; PGE2 serum conc. [2]: 452.954 ± 6.48 pg/mL
O=C(c1cc(/N=N/c2ccc(S(=O)(=O)Nc3nccs3)cc2)ccc1O)N1CCCCC1 [Compound 5i, 4-((4-Hydroxy-3-(piperidine-1-carbonyl)phenyl)diazenyl)-N-(thiazol-2-yl) benzenesulfonamide] |  |  |  |  |  |  |  | 31 | 19 | 16 | 18 | 18 | 15 | weak in vitro antibacterial activity | 25 | 22 | 11.2 ± 0.11 | 30 | 80 ± 0.8 | 136.6 | 
Cc1ccnc(NS(=O)(=O)c2ccc(/N=N/c3ccc(O)c(C(=O)N4CCCCC4)c3)cc2)n1 [Compound 5k, 4-((4-Hydroxy-3-(piperidine-1-carbonyl)phenyl)diazenyl)-N-(4-methylpyrimidin-2-yl) benzenesulfonamide] |  |  |  |  |  |  |  | 28 | 18 | 16 | 19 | 14 | 14 | weak in vitro antibacterial activity | 19 | 25 | 10.3 ± 0.08 | 32 | 90 ± 0.3 | 111.9 | 
O=C(c1cc(N=Nc2ccc(S(=O)(=O)Nc3nccs3)cc2)ccc1O)N1CCOCC1 [Compound 5m, 4-((4-Hydroxy-3-(morpholine-4-carbonyl)phenyl)diazenyl)-N-(thiazol-2-yl)benzenesulfonamide] |  |  |  |  |  |  |  | 29 | 20 | 18 | 16 | 18 | 16 | weak in vitro antibacterial activity | 25 | 24 | 9.9 | 33 | 100 ± 0.8 | 102.1 | 
O=C(O)Cc1ccccc1Nc1c(Cl)cccc1Cl [Diclofenac sodium, reference compound] | 11.5 | 0.69 ± 0.004 | (-11.58%) | 1.06 ± 0.03^c mm | (38.19%) | 0.89 ± 0.01^c mm | (60.98%) |  |  |  |  |  |  |  |  |  |  |  |  |  | Thickness of edoema 6h [1]: 0.80 ± 0.01^c mm; Thickness of edoema 8h [1]: 0.71 ± 0.01^c mm; Gastric ulcerogenic effect, histopathological examination of gastric layers [15]: erosion in the gastric layers; Gastric ulcerogenic effect, monitoring of isolated stomachs [15]: signs of gastric ulcers and hyperaemia; % inhibition of PGE2-production [2]: 79.10%; PGE2 serum conc. [2]: 276.052 ± 5.60 pg/mL
O=C(O)c1cc(/N=N/c2ccc(S(=O)(=O)Nc3ccccn3)cc2)ccc1O [Sulfasalazine, reference compound] |  |  |  |  |  |  |  |  |  |  |  |  |  |  |  |  |  |  |  |  | ED50 [6]: 419 µmol/kg; ED50, protective effect against bacteremic infection, Escherichia coli [6]: 419.2 µmol/kg/day; ED50 [17]: 314 µmol/kg; ED50, protective effect against bacteremic infection, Staphylococcus aureus [17]: 313.7 µmol/kg/day
